How the values were obtained:
[1] = test system: male C57BL6/J mice; assay: Plasma/serum insulin and c-peptide after acute neddylation inhibitor treatment; type: in vivo; conditions: 6 h fast
Method: Male C57BL6/J mice on chow diet were treated with 45 mg/kg TAS4464 via subcutaneous injection at 9 am. Mice were then fasted for 6 hours and serum insulin was measured. Blood samples were collected at 0 min and 120 min and used for insulin measurement (n=4). Left-hand bars are controls. Right-hand bars are TAS4464 treatments.
Male C57BL6/J mice on Western diet were treated with 15 mg/kg TAS4464 via subcutaneous injection at 9 am. Mice were then fasted for 6 hours and serum c-peptide were measured (n=5).
Male C57BL6/J mice on chow diet were treated with 60 mg/kg MLN4924 via subcutaneous injection at 9 am. Mice were then fasted for 6 hours and serum c-peptide were measured (n=8)
Aspartate aminotransferase (AST) and alanine aminotransferase (ALT) assay kits were purchased from Pointe Scientific (Canton, MI). Free fatty acid assay kit was purchased from Biovision Inc. (Milpitas, CA). Insulin ELISA kit was purchased from Crystal Chem Inc. (Elk Grove Village, IL).
A hyperinsulinemic-euglycemic clamp study was conducted in which obese mice were treated with vehicle or MLN4924.

[2] = test system: AML12 mouse hepatocytes; assay: Western blot of insulin signaling and cullin neddylation in AML12 cells; type: cell-based
Method: MLN4924 increases IRS protein and AKT activation in the presence of insulin. Mouse AML 12 hepatocytes were serum starved for 16 h. Cells were then pre-treated with MLN4924 for 1 h followed by 100 nM insulin stimulation for 4 h. Western blot was then performed to evaluate insulin signaling activation.
AML 12 cells were serum starved for 16 h. Cells were then pre-treated with 500 nM MLN4924 or vehicle (DMSO) for 1 h, followed by 100 µg/ml cycloheximide (CHX) and 100 nM insulin treatment.
AML12 cells were serum starved for 16 h. Cells were then pre-treated with 500 nM MLN4924 for 1 h followed by 100 nM insulin stimulation in time course.
FIG. 18A is a Western blot analysis showing that MLN4924 enhances hepatocyte insulin responsiveness (signaling) by delaying feedback IRS degradation. AML12 cells were serum starved for 16 h. Cells were then pre-treated with MLN4924 for 1 h followed by insulin stimulation for 4 h.
FIG. 18D is a Western blot analysis of insulin signaling in AML12 cells serum starved for 16 h, then pre-treated with 500 nM MLN4924 for 1 h followed by 100 nM insulin stimulation in time course.
FIG. 18E is a Western blot analysis of AML12 cells serum starved for 16 h then pre-treated with 500 nM MLN4924 or vehicle (DMSO) for 1 h, followed by 100 µg/ml cycloheximide (CHX) and 100 nM insulin treatment. Cells were collected at the indicated time for Western blotting.
FIG. 18F is a Western blot analysis of insulin signaling in AML12 cells serum starved for 16 h then pre-treated with 100 nM rapamycin and 500 nM MLN4924 as indicated for 1 h followed by additional 2 h incubation in the presence or absence of 100 nM insulin. Blots are representative of 2-4 independent experiments.
(§1) FIG. 20 is a Western blot analysis showing that MLN4924 enhances hepatocyte insulin responsiveness in cells treated with wortmannin by delaying feedback IRS degradation (related to FIG. 18A). AML12 cells were serum starved for 16 h then pre-treated with 1 µM wortmannin (Wort) and 500 nM MLN4924 as indicated for 1 h followed by additional 2 h incubation in the presence or absence of 100 nM insulin. Blots are representative of 2 independent experiments.
as §1, with “21” for “20”, “Torin 1” for “wortmannin”, “250 nM Torin1” for “1 µM wortmannin (Wort)”
(§2) MLN4924 and TAS4464 were purchased from MedChemExpress (MCE, Monmouth Junction, NJ). For cell treatment, MLN4924 and TAS4464 were dissolved in DMSO. Cells were serum starved overnight and then treated with MLN4924, TAS4464 and/or insulin as indicated. For injection in mice, MLN4924 and TAS4464 were first dissolved in DMSO, which was further suspended in 10% (2-hydroxypropyl)-β-cyclodextrin (Sigma, St. Louis, MO). The final solution contains 1% DMSO. The subcutaneous injection volume is 200 µl/mouse.
Protein lysates were prepared in RIPA buffer containing 1% SDS and protease inhibitors on ice for 1 h followed by brief sonication. After centrifugation, supernatant was used for SDS-PAGE and immunoblotting.
AML12 cells were a generous gift from Dr. Yanqiao Zhang (Northeast Ohio Medical University). AML12 cells were cultured in DMEM medium supplemented with a mixture of insulin-transferrin-selenium (#41400-045, ThermoFisher, Waltham, MA). For experiments, cells were cultured in serum free medium overnight before various treatments were initiated. The siGENOME SMARTpool siRNA and siControl were purchased from Dharmacon, Inc. (Lafayette, CO). The siRNA was transfected with Lipofectamine RNAiMAX reagent in a final concentration of 25 nM recommended by the manufacturer. […]

[3] = test system: insulin resistant and obese male C57BL/6J mice; assay: Acute TAS4464 treatment of obese, insulin resistant WD-fed mice; type: in vivo; conditions: WD 8 weeks
Method: Mice were fed WD for 8 weeks to render them insulin resistant and obese. Mice were then treated with 45 mg/kg TAS4464 or vehicle once at 5 pm on day 1 and once at 9 am on day 2. Body weight and blood glucose were measured at 3 pm on day 2.
Mice were fed WD for 8 weeks, after which the mice were injected with vehicle or 45 mg/kg TAS4464 subcutaneously at 5 pm on day 1 and 9 am on day 2. Mice were fasted from 9 am to 3 pm on day 2 and blood glucose was measured. Results are expressed as mean ± SEM. […]. “*”, p < 0.05, vs. Vehicle.
as §2
Treatment of obese mice with TASS4464 reduced the blood glucose to ~100 mg/dl.

[4] = 1 µM wortmannin or 250 nM Torin1, 100 nM insulin

SMILES: CCOc1cccc(F)c1C#Cc1cn([C@@H]2O[C@H](CNS(N)(=O)=O)[C@@H](O)[C@H]2O)c2ncnc(N)c12 [TAS4464, 7H-Pyrrolo[2,3-d]pyrimidin-4-amine, 7-[5-[(aminosulfonyl)amino]-5-deoxy-beta-D-ribofuranosyl]-5-[2-(2-ethoxy-6-fluorophenyl)ethynyl]-]
- serum c-peptide concentration ([1]; Western diet, 15 mg/kg SQ at 9 am): elevated serum c-peptide concentration
- serum insulin concentration ([1]; chow diet, 45 mg/kg SQ at 9 am): increases serum insulin concentration
- IRS protein ([2]; TAS4464 increasing doses, 5 h): increased IRS protein
- neddylated cullin 1 ([2]; TAS4464 increasing doses, 5 h): significantly inhibited
- total neddylated cullins ([2]; TAS4464 increasing doses, 5 h): significantly inhibited
- blood glucose after 6-hour fast ([3]; 45 mg/kg SQ at 5 pm day 1 and 9 am day 2): ~ 100 mg/dl
- blood glucose (in words) ([3]; 45 mg/kg SQ twice, 6 h fast): acutely reduced blood glucose

SMILES: CCC(=O)N1CCN(c2ccc(-n3c(=O)ccc4cnc5ccc(-c6cnc7ccccc7c6)cc5c43)cc2C(F)(F)F)CC1 [Torin 1]
- downstream AKT activation [2, 4]: decreased downstream AKT activation
- downstream mTOR activation [2, 4]: blocked downstream mTOR activation

From patent US20230218654A1, “COMPOSITIONS AND METHODS FOR TREATING HYPERGLYCEMIA IN TYPE-2 DIABETES” (The Board of Regents of the university of Oklahoma, priority 2020, published 2023)
